Results taken from patent publication US20210402002A1, “CONJUGATE” (priority 2018, published 2021).

How the values were obtained:
SKOV-3 cells = assay: ADCC assay (LDH cytotoxicity) with SKOV-3 cells pre-incubated with glycosylation inhibitors; format: cell-based
Procedure: (§1) SKBR-3 and SKOV-3 cells were cultured on 96-well plates in recommended conditions and incubated with or without glycosylation inhibitors or ADCs for four days as described above. […] After 3.5 h at +37° C., cytotoxicity was assessed with commercial lactate dehydrogenase assay kit (Cytotoxicity detection kit (LDH), Thermo Fischer Scientific) and the cytotoxicities were calculated as proportion of killed cells (%, average of three parallel wells).

SKBR-3 cells [1] = assay: N-glycan profiling by MALDI-TOF MS, high-mannose N-glycans (mannosidase I inhibition); format: cell-based; details: 10 μM, four days, control cells 7.07
SKBR-3 cells [2] = assay: ADCC assay (LDH cytotoxicity) with SKBR-3 cells pre-incubated with glycosylation inhibitors; format: cell-based
Procedure: as §1

SKBR-3 cells [3] = system: SKBR-3 cells
[4] = system: NCI-N87 cancer cell line tumors; assay: In vivo efficacy trial, tumors on chicken egg chorioallantoic membrane (CAM); details: day E18, trastuzumab and tunicamycin-ADC single dose 2.5 mg/kg, pembrolizumab […] five doses, PBS control 32.2
Procedure: (§2) The study was performed by Inovotion SAS (La Tronche, France) as follows: Fertilized chicken eggs were incubated at 37.5° C. with 50% relative humidity for 9 days (E9), when the chorioallantoic membrane (CAM) was dropped down by drilling a small hole through the eggshell into the air sac, and a 1 cm^2 window was cut in the eggshell above the CAM. The NCI-N87 cell line was cultivated in RPMI-1640 medium supplemented with 10% FBS and 1% penicillin/streptomycin. On day E9, cells were detached by trypsin, washed with complete medium and suspended in graft medium. An inoculum of 2 million cells was added onto the CAM of each egg. […] On day 18 (E18) the upper portion of the CAM was removed, washed in PBS and then directly transferred in PFA (fixation for 48 h). The tumors were then carefully cut away from normal CAM tissue and weighed. Eggs were checked at each treatment time, or at least every two days, for viability during the study. At the end of the study, the number of dead embryos was counted and combined with the observation of eventual visible macroscopic abnormalities (observation done during the sample collection) to evaluate the toxicity.

egg embryos = assay: Embryo toxicity in the CAM in vivo trial (% alive egg embryos); parameters: species or system chicken; details: alive egg embryos at end of study; same dosing; PBS control 83
Procedure: as §2

HSC-2 cancer cells = assay: FACS staining of HSC-2 cells with lectins, Galectin-1 and Siglec-7 after incubation with glycosylation inhibitors; format: cell-based; details: 2 days, compared to untreated cells; for Galectin-1 ligand glycosylation, lectin and Galectin-1 staining: 100 μM; for sialylation/Siglec-7 ligand glycosylation, SNA-I and Siglec-7 staining: 200 μM
Procedure: In another experiment, HSC-2 cancer cells were cultured for two days, after which glycosylation inhibitors were added to the cell culture medium: 200 μM β-3-Fax-Neu5Ac and 100 μM β-4-F-GlcNAc. The cells were then cultured for 2 days with inhibitors. In parallel, untreated cells were cultured in normal cell culture medium. For flow cytometry analysis cells were detached with trypsin, washed, and stained with FITC-conjugated lectins, AlexaFluor488-conjugated Galectin-1 and recombinant human Siglec-7 (R&D Systems) at +4° C. for 30-45 minutes (the Siglec-samples were further stained with AlexaFluor488-conjugated anti-human IgG antibody at +4° C. for 30-45 minutes). FACS was performed as above.

[5] = system: SKOV-3 ovarian carcinoma cells; assay: FACS staining of SKOV-3 cells with labeled lectins and Galectins after incubation with glycosylation inhibitors; format: cell-based; details: compared to untreated cells; for Galectin ligand expression, LEA-FITC, Galectin-1 and Galectin-3 staining: 50 μM, 4 days; for cell surface sialylation, SNA-I-FITC lectin staining: 100 μM, 3 days
Procedure: SKOV-3 ovarian carcinoma cells (ATCC, Manassas, Va., USA) were cultured according to ATCC's instructions and incubated in the presence of either 50 μM 2-acetamido-2,4-dideoxy-4-fluoro-1,3,6-tri-O-acetyl-D-glucose for 4 days (β-4-F-GlcNAc; Sussex Research, Ottawa, Canada), 100 μM 5-acetamido-3,5-dideoxy-3-fluoro-2,4,7,8,9-penta-O-acetyl-D-erythro-L-manno-2-nonulosonic acid methyl ester (β-3-Fax-Neu5Ac; Tocris Bioscience, Abingdon, United Kingdom) for 3 days, or DMSO carrier control in parallel. After the incubation, cells were stained with fluorescein-labeled lectins SNA-I-FITC for α2,6-sialylation, LEA-FITC for poly-N-acetyllactos-amines (both from EY Labs, San Mateo, Calif., USA), Alexa Fluor 488-conjugated human recombinant Galectin-1, and Alexa Fluor 488-conjugated human recombinant Galectin-3 (both from Abcam, Cambridge, United Kingdom). Cells were washed and stored on ice in the dark until analysed by FACSAriaII flow cytometer.

HER2 = assay: Inhibition of HER2 glycoprotein N-glycosylation in SKBR-3 cells (SDS-PAGE, anti-HER2 immunoblot); format: cell-based, human
Description: After six days' culture, the cells were lysed and samples from each treatment were subjected to SDS-PAGE and immunoblotting with anti-HER2 antibody (anti-human ErbB2/Her2 goat polyclonal antibody AF1129, R&D Systems) with standard procedures.

[6] = SKOV-3, 50 μM inhibitor and trastuzumab only, no effector cells
[7] = SKOV-3, 50 μM inhibitor, trastuzumab and effector cells applied
[8] = second assay, SKBR-3, 50 μM inhibitor and trastuzumab only, no effector cells
[9] = second assay, SKBR-3, 50 μM inhibitor, trastuzumab and effector cells applied

O=C1N[C@@H]2[C@@H](O)[C@@H](O)[C@H](O)[C@@H](CO)N2C1=O [kifunensine]
cytotoxicity (proportion of killed cells) (SKOV-3 cells; [6]): no cytotoxicity was observed | cytotoxicity (proportion of killed cells) (SKOV-3 cells; [7]): about 2% | average number of mannose residues (Man) in the Man5-9GlcNAc2 glycan signal series (SKBR-3 cells [1]): 8.56 | cytotoxicity (proportion of killed cells) (SKBR-3 cells [2]; first assay, SKBR-3, 10 μM inhibitor and trastuzumab only, no effector cells): no cytotoxicity was detected | cytotoxicity (proportion of killed cells) (SKBR-3 cells [2]; first assay, SKBR-3, 10 μM inhibitor, trastuzumab and effector cells applied): 18.5% | cytotoxicity (proportion of killed cells) (SKBR-3 cells [2]; [8]): 2-3% | cytotoxicity (proportion of killed cells) (SKBR-3 cells [2]; [9]): about 19%

omalizumab-MC-VC-PAB-DMAE-tunicamycin DAR=8 ADC: DAR=8 conjugate of MC-VC-PAB-DMAE-tunicamycin V prepared from omalizumab (negative control antibody)
cytotoxicity to the cells in the viability assay (SKBR-3 cells [3]; five or eight days, up to 1 μM): no apparent toxicity

pembrolizumab: pembrolizumab (Keytruda, Merck)
Mean tumor size [4]: 34.9 mg | % alive (egg embryos): 58%

CC(=O)N[C@H]1C(OC(C)=O)O[C@H](COC(C)=O)[C@@H](F)[C@@H]1OC(C)=O (stereo partly drawn) [P-4F-GlcNAc, 2-acetamido-2,4-dideoxy-4-fluoro-1,3,6-tri-O-acetyl-D-glucose]
cytotoxicity (proportion of killed cells) (SKOV-3 cells; [6]): no cytotoxicity was observed | cytotoxicity (proportion of killed cells) (SKOV-3 cells; [7]): about 5% | Galectin-1 ligand glycosylation, lectin and Galectin-1 staining (HSC-2 cancer cells): effective inhibition | Galectin-1 ligand glycosylation, lectin and Galectin-1 staining (HSC-2 cancer cells; listed as β-4-F-GlcNAc): clearly decreased | Galectin ligand expression, LEA-FITC, Galectin-1 and Galectin-3 staining [5]: effective inhibition | Galectin ligand expression, LEA-FITC, Galectin-1 and Galectin-3 staining ([5]; listed as β-4-F-GlcNAc): clearly decreased | cytotoxicity (proportion of killed cells) (SKBR-3 cells [2]; [8]): 1-2% | cytotoxicity (proportion of killed cells) (SKBR-3 cells [2]; [9]): about 16%

COC(=O)C1(OC(C)=O)O[C@@H]([C@H](OC(C)=O)[C@@H](COC(C)=O)OC(C)=O)[C@H](NC(C)=O)[C@@H](OC(C)=O)[C@H]1F (stereo partly drawn) [P-3Fax-Neu5Ac, 5-acetamido-3,5-dideoxy-3-fluoro-2,4,7,8,9-penta-O-acetyl-D-erythro-L-manno-2-nonulosonic acid methyl ester]
sialylation/Siglec-7 ligand glycosylation, SNA-I and Siglec-7 staining (HSC-2 cancer cells): effective inhibition | sialylation/Siglec-7 ligand glycosylation, SNA-I and Siglec-7 staining (HSC-2 cancer cells; listed as β-3-Fax-Neu5Ac): clearly decreased | cell surface sialylation, SNA-I-FITC lectin staining [5]: effective inhibition | cell surface sialylation, SNA-I-FITC lectin staining ([5]; listed as β-3-Fax-Neu5Ac): clearly decreased | absorbance reading in the cytotoxicity assay (SKBR-3 cells [2]; third assay, SKBR-3, 50 μM inhibitor, trastuzumab and effector cells applied): about 0.7

tunicamycin
cytotoxicity (proportion of killed cells) (SKOV-3 cells; SKOV-3, 0.5 μM inhibitor and trastuzumab only, no effector cells): about 2% | cytotoxicity (proportion of killed cells) (SKOV-3 cells; SKOV-3, 0.5 μM inhibitor, trastuzumab and effector cells applied): about 5% | IC50 (SKBR-3 cells [3]; read-out: IC50 (cellular viability), six days): 300 nM | cytotoxicity (proportion of killed cells) (SKBR-3 cells [2]; first assay, SKBR-3, 1 μM inhibitor and trastuzumab only, no effector cells): no cytotoxicity was detected | cytotoxicity (proportion of killed cells) (SKBR-3 cells [2]; first assay, SKBR-3, 1 μM inhibitor, trastuzumab and effector cells applied): 40.4% | cytotoxicity (proportion of killed cells) (SKBR-3 cells [2]; second assay, SKBR-3, 0.5 μM inhibitor and trastuzumab only, no effector cells): about 4% | cytotoxicity (proportion of killed cells) (SKBR-3 cells [2]; second assay, SKBR-3, 0.5 μM inhibitor, trastuzumab and effector cells applied): about 46% | EC50 (HER2; six days' incubation, immunoblot, read-out: EC50 (concentration with 50% efficacy) of decrease of relative MW of HER2, defective N-glycosylation): 70 nM | decrease of relative MW of HER2 upon inhibition of N-glycosylation (HER2; six days, SDS-PAGE): about 15 kDa
